Source: patent publication US12454529B2, “Piperazine cyclic ureas” (SIRONAX LTD., priority 2020, dated 2025)
Read-outs that look alike come from different tables or passages of the source.

Test system: HT-29 cells
Experiment: HT-29 cell necrosis/necroptosis inhibition (TNF-α + SMAC mimetic + zVAD-FMK; CellTiter-Glo cell viability)
Type: cell-based
Settings: Homo sapiens, HT-29 cells, TNF-α 10 ng/ml + SMAC mimetic 6 μM + zVAD-FMK 10 μM, 20 hours, geometric mean, 10 points in duplicate
Procedure, shortened: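 Necroptosis was driven by TNF-α 10 ng/ml plus SMAC mimetic 6 μM and zVAD-FMK 10 μM in serum-free medium, with compounds as a 10-point threefold titration. After 20 h at 37 °C, ATP-based luminescence was read; EC50 values are geometric means of duplicate curves.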

[1] = read-out: EC50 (Cell activity; Necrosis/Necroptosis Inhibitory Activity, Compounds 143-323)

SMILES	EC50 [1] [nM]	EC50 (read-out: EC50 (Cell activity; Necrosis/Necroptosis Inhibitory Activity, Compounds 1-142)) [nM]
Cc1nn(-c2nc(N3CCN(C(=O)N4N=CC[C@H]4c4cc(F)cc(C#N)c4)CC3)ncc2F)c(C)c1NC(=O)C1CC1 [Compound 192, (S)—N-(1-(2-(4-(5-(3-cyano-5-fluorophenyl)-4,5-dihydro-1H-pyrazole-1-carbonyl)piperazin-1-yl)-5-fluoropyrimidin-4-yl)-3,5-dimethyl-1H-pyrazol-4-yl)cyclopropanecarboxamide]	0.1 to 100	
Cn1nncc1-c1nc(N2CCN(C(=O)N3N=CC[C@H]3c3cc(F)cc(C#N)c3)CC2)ncc1F [Compound 41]		0.1 to 100
Cc1ncn(-c2nc(N3CCN(C(=O)N4N=CC[C@H]4c4cc(F)cc(F)c4)CC3)ncc2F)n1 [Compound 235, (S)-(5-(3,5-difluorophenyl)-4,5-dihydro-1H-pyrazol-1-yl)(4-(5-fluoro-4-(3-methyl1H-1,2,4-triazol-1-yl)pyrimidin-2-yl)piperazin-1-yl)methanone]	0.1 to 100	
Cc1cnc([C@@H]2CC=NN2C(=O)N2CCN(c3ncc(F)c(-n4nc(C#N)nc4C)n3)CC2)s1 [Compound 319, (S)-1-(5-fluoro-2-(4-(5-(5-methylthiazol-2-yl)-4,5-dihydro-1H-pyrazole-1-carbonyl)piperazin-1-yl)pyrimidin-4-yl)-5-methyl-1H-1,2,4-triazole-3-carbonitrile]	0.1 to 100	
Cc1nc(C)n(-c2nc(N3C[C@@H](C)N(C(=O)N4N=CC[C@H]4c4cc(F)cc(C#N)c4)[C@@H](C)C3)ncc2F)n1 [Compound 146, 3-((S)-1-((2S,6R)-4-(4-(3,5-dimethyl-1H-1,2,4-triazol-1-yl)-5-fluoropyrimidin-2-yl)-2,6-dimethylpiperazine-1-carbonyl)-4,5-dihydro-1H-pyrazol-5-yl)-5-fluorobenzonitrile]	1000 to 10000	
